Source: patent publication US11253634B2, “Cationic steroidal antibiotic compositions for the treatment of dermal tissue” (BRIGHAM YOUNG UNIVERSITY, priority 2016, dated 2022)
In brackets after ≈: the same amount, converted by molar mass.

Legend:
primary human MSC cells = experiment: Gene expression (q-PCR, inflammation-related mRNA panel) after CSA treatment of primary cells; assay type: cell-based; details: 8 hours treatment, CSA-13 at 5.0 μM; for Fold Regulation, IL1A: gene IL1A (Interleukin-1 alpha); for Fold Regulation, IL1A / Fold Regulation, IL1B / Fold Regulation, IRAK2 / Fold Regulation, NFKBIA / Fold Regulation, TLR2 / Fold Regulation, TLR4 / Fold Regulation, TLR6 / Fold Regulation, TLR8 / Fold Regulation, TLR9 / Fold Regulation, TNF / Fold Regulation, TNFRSF1A: q-PCR; for Fold Regulation, IL1B: gene IL1B (Interleukin-1 beta); for Fold Regulation, IRAK2: gene IRAK2 (Interleukin-1 receptor-associated kinase 2); for Fold Regulation, NFKB1: gene NFKB1, q-PCR; for Fold Regulation, NFKB2: gene NFKB2, q-PCR; for Fold Regulation, NFKBIA: gene NFKBIA; for Fold Regulation, TLR2: gene TLR2 (Toll-like receptor 2); for Fold Regulation, TLR4: gene TLR4 (Toll-like receptor 4); for Fold Regulation, TLR6: gene TLR6 (Toll-like receptor 6); for Fold Regulation, TLR8: gene TLR8 (Toll-like receptor 8); for Fold Regulation, TLR9: gene TLR9 (Toll-like receptor 9); for Fold Regulation, TNF: gene TNF (Tumor necrosis factor); for Fold Regulation, TNFRSF1A: gene TNFRSF1A
Pseudomonas aeruginosa = experiment: MIC/MBC against mixed-species biofilms: P. aeruginosa; assay type: cell-based; details: mixed-species biofilms grown 22 hours, 20 hours of treatment
Protocol: (§1) Several CSA compounds were tested against Pseudomonas aeruginosa and Staphylococcus aureus mixed-species biofilms grown for an initial 22 hours and subjected to 20 hours of treatment.

Staphylococcus aureus = experiment: MIC/MBC against mixed-species biofilms: S. aureus; assay type: cell-based; details: mixed-species biofilms grown 22 hours, 20 hours of treatment
Protocol: as §1

IL-6 = experiment: Kidney IL-6 levels in P. aeruginosa pneumonia model; assay type: in vivo, C57/BL6 mice; details: 24 hours post-infection
Excerpt: IL-6 is a marker of systemic inflammation. Female C57/BL6 mice were infected in the respiratory tract with a non-lethal dose of P. aeruginosa as a model of pneumonia.

[1] = Solubility of CSA-131 salt in cyanoacrylate; assay type: physicochemical
Protocol: CSA-131 (bis-DNS salt) was used in this Example. This material is a stable, colorless solid and is insoluble in cyanoacrylate. To ensure uniform distribution of CSA-131 in the cyanoacrylate polymer, the solid was micronized using a jet mill to give an average particle size of 200 nm. The resulting powder was added to cyanoacrylate to give a 5% (w/w) mixture, which was vigorously agitated. No immediate change in viscosity was observed, and the mixture remained non-viscous for more than 15 min.

[2] = tested on: Streptococcus Pneumoniae (10); experiment: Broth microdilution susceptibility testing, S. pneumoniae isolates; assay type: cell-based; details: unit inferred, unit assumed
Protocol: (§2) CSA-131 was tested in vitro against a set of clinical isolates representing bacterial species commonly associated with hospital-acquired infections. Antimicrobial susceptibility testing for 74 clinical isolates was performed.

[3] = tested on: 74 clinical isolates (All); experiment: Broth microdilution susceptibility testing, all clinical isolates; assay type: cell-based; details: All (74) isolates; no unit in column head (MIC levels of table in μg/ml)
Protocol: as §2

Haemophilus spp. (10) = experiment: Broth microdilution susceptibility testing, Haemophilus spp. isolates; assay type: cell-based, H. influenza and H. parainfluenzae; details: unit inferred, unit assumed
Protocol: as §2

Non-fermenters (22) = experiment: Broth microdilution susceptibility testing, non-fermenter isolates; assay type: cell-based, A. baumannii species complex, P. aeruginosa, S. maltophilia; details: unit inferred, unit assumed
Protocol: as §2

Enterobacteriaceae (22) = experiment: Broth microdilution susceptibility testing, Enterobacteriaceae isolates; assay type: cell-based; details: unit inferred, unit assumed
Protocol: as §2

[4] = tested on: Staphylococcus aureus (10); experiment: Broth microdilution susceptibility testing, S. aureus isolates; assay type: cell-based; details: unit inferred, unit assumed
Protocol: as §2

Which “Fold Regulation, IL1A” value (primary human MSC cells) does the source give for `CCCCCN(CCCCC)CCCC(C)C1CCC2C3C(OCCCN)CC4CC(OCCCN)CCC4(C)C3CC(OCCCN)C12C.Cl.Cl.Cl.Cl` (centres unmarked) [CSA-90] here?
The value was −6.96 fold.

What about the “Fold Regulation, IL1B” value (primary human MSC cells) of the same compound?
The value was −3.6734 fold.

And the “Fold Regulation, IRAK2” value (primary human MSC cells)?
The value was −52.0069 fold.

And the “Fold Regulation, NFKB1” value (primary human MSC cells)?
The value was −4.718 fold.

What about the “Fold Regulation, NFKB2” value (primary human MSC cells) of the same compound?
Its value is −2.5474 fold.

And the “Fold Regulation, NFKBIA” value (primary human MSC cells)?
The value was −26.0352 fold.

And the “Fold Regulation, TLR2” value (primary human MSC cells)?
Its value is −13.6933 fold.

And the “Fold Regulation, TLR4” value (primary human MSC cells)?
Its value is −3.4278 fold.

What about the “Fold Regulation, TLR6” value (primary human MSC cells) of the same compound?
Its value is −2.0885 fold.

And the “Fold Regulation, TLR8” value (primary human MSC cells)?
Its value is −4.1972 fold.

And the “Fold Regulation, TLR9” value (primary human MSC cells)?
Its value is −1.8613 fold.

What about the “Fold Regulation, TNF” value (primary human MSC cells) of the same compound?
The value was −4.8514 fold.

What about the “Fold Regulation, TNFRSF1A” value (primary human MSC cells) of the same compound?
The value was −7.3196 fold.

And the “MBC P. aeruginosa” value (Pseudomonas aeruginosa)?
Its value is 6.25 µg/mL.

And the “MIC P. aeruginosa” value (Pseudomonas aeruginosa)?
The value was 6.25 µg/mL.

What about the “MBC S. aureus” value (Staphylococcus aureus) of the same compound?
The value was 1.56 µg/mL.

And the “MIC S. aureus” value (Staphylococcus aureus)?
Its value is 1.56 µg/mL.

For `CCCCCCCCNCCC[C@@H](C)[C@H]1CC[C@H]2[C@@H]3[C@H](OCCCN)C[C@@H]4C[C@H](OCCCN)CC[C@]4(C)[C@H]3C[C@H](OCCCN)[C@]12C` [CSA-13], which “Effect of treatment on kidney IL-6 levels” value (IL-6) is on record?
The value was “significantly reduced”.

For `CCCCCCCCCCCCNCCCC(C)C1CCC2C3C(OCCCN)CC4CC(OCCCN)CCC4(C)C3CC(OCCCN)C12C.O=S(=O)(O)c1cccc2c(S(=O)(=O)O)cccc12.O=S(=O)(O)c1cccc2c(S(=O)(=O)O)cccc12` (centres unmarked) [CSA-131 (bis-DNS salt)], which Solubility in cyanoacrylate [1] is on record?
The Solubility in cyanoacrylate was “insoluble”.

With `CC(O)C1CCC2C3C(OCCCN)CC4CC(OCCCN)CCC4(C)C3CC(OCCCN)C12C.Cl.Cl.Cl` (centres unmarked) [CSA-11] as the compound, how does the “MBC P. aeruginosa” value (Pseudomonas aeruginosa) read?
Its value is >200 µg/mL.

What about the “MIC P. aeruginosa” value (Pseudomonas aeruginosa) of the same compound?
The value was >200 µg/mL.

And the “MBC S. aureus” value (Staphylococcus aureus)?
The value was 50 µg/mL.

And the “MIC S. aureus” value (Staphylococcus aureus)?
Its value is 50 µg/mL.

What does the source list for `CC(CCCO)C1CCC2C3C(OCCCN)CC4CC(OCCCN)CCC4(C)C3CC(OCCCN)C12C.Cl.Cl.Cl` (centres unmarked) [CSA-8]?
MBC P. aeruginosa (Pseudomonas aeruginosa): 100 µg/mL; MIC P. aeruginosa (Pseudomonas aeruginosa): 25 µg/mL; MBC S. aureus (Staphylococcus aureus): 6.25 µg/mL; MIC S. aureus (Staphylococcus aureus): 3.125 µg/mL

What does the source list for `CCCCCCCCCCOC(=O)CC[C@@H](C)[C@H]1CC[C@H]2[C@@H]3[C@H](OC(=O)CCN)C[C@@H]4C[C@H](OC(=O)CCN)CC[C@]4(C)[C@H]3C[C@H](OC(=O)CCN)[C@]12C` [CSA-144]?
MBC P. aeruginosa (Pseudomonas aeruginosa): 50 µg/mL (≈ 65.6 µM); MIC P. aeruginosa (Pseudomonas aeruginosa): 12.5 µg/mL (≈ 16.4 µM); MBC S. aureus (Staphylococcus aureus): 3.125 µg/mL (≈ 4.1 µM); MIC S. aureus (Staphylococcus aureus): 3.125 µg/mL (≈ 4.1 µM)

Which results are given for `CCCCCCCCCOC(=O)CC[C@@H](C)[C@H]1CC[C@H]2[C@@H]3[C@H](OC(=O)CCN)C[C@@H]4C[C@H](OC(=O)CCN)CC[C@]4(C)[C@H]3C[C@H](OC(=O)CCN)[C@]12C` [CSA-145]?
MBC P. aeruginosa (Pseudomonas aeruginosa): 50 µg/mL (≈ 66.8 µM); MIC P. aeruginosa (Pseudomonas aeruginosa): 12.5 µg/mL (≈ 16.7 µM); MBC S. aureus (Staphylococcus aureus): 3.125 µg/mL (≈ 4.18 µM); MIC S. aureus (Staphylococcus aureus): 3.125 µg/mL (≈ 4.18 µM)

Which MIC50 [2] does the source give for `CCCCCCCCCCCCNCCC[C@@H](C)[C@H]1CC[C@H]2[C@@H]3[C@H](OCCCN)C[C@@H]4C[C@H](OCCCN)CC[C@]4(C)[C@H]3C[C@H](OCCCN)[C@]12C.Cl.Cl.Cl.Cl` [CSA-131] here?
The MIC50 was 4 µg/mL.

What about the MIC90 [2] of the same compound?
The MIC90 was 4 µg/mL.

What about the MIC50 [3] of the same compound?
Its MIC50 is 4.

And the MIC90 [3]?
Its MIC90 is 8.

And the MIC50 (Haemophilus spp. (10))?
The MIC50 was 8 µg/mL.

What about the MIC90 (Haemophilus spp. (10)) of the same compound?
Its MIC90 is 8 µg/mL.

What about the MIC50 (Non-fermenters (22)) of the same compound?
The MIC50 was 4 µg/mL.

What about the MIC90 (Non-fermenters (22)) of the same compound?
The MIC90 was 4 µg/mL.

What about the MIC50 (Enterobacteriaceae (22)) of the same compound?
Its MIC50 is 4 µg/mL.

What about the MIC90 (Enterobacteriaceae (22)) of the same compound?
Its MIC90 is 4 µg/mL.

And the MIC50 [4]?
Its MIC50 is 2 µg/mL.

What about the MIC90 [4] of the same compound?
Its MIC90 is 2 µg/mL.

With `CCCCCCCCCCCCCNCCC[C@@H](C)[C@H]1CC[C@H]2[C@@H]3[C@H](OCCCN)C[C@@H]4C[C@H](OCCCN)CC[C@]4(C)[C@H]3C[C@H](OCCCN)[C@]12C` [CSA-138] as the compound, how does the “MBC P. aeruginosa” value (Pseudomonas aeruginosa) read?
The value was 6.25 µg/mL (≈ 8.36 µM).

And the “MIC P. aeruginosa” value (Pseudomonas aeruginosa)?
The value was 3.125 µg/mL (≈ 4.18 µM).

And the “MBC S. aureus” value (Staphylococcus aureus)?
The value was 3.125 µg/mL (≈ 4.18 µM).

What about the “MIC S. aureus” value (Staphylococcus aureus) of the same compound?
Its value is 1.56 µg/mL (≈ 2.09 µM).

Which “MBC P. aeruginosa” value (Pseudomonas aeruginosa) does the source give for `CC(CCCNCCCNCCCN)C1CCC2C3C(OCCCN)CC4CC(OCCCN)CCC4(C)C3CC(OCCCN)C12C.Cl.Cl.Cl.Cl.Cl.Cl` (centres unmarked) [CSA-54] here?
Its value is 100 µg/mL.

What about the “MIC P. aeruginosa” value (Pseudomonas aeruginosa) of the same compound?
The value was 50 µg/mL.

And the “MBC S. aureus” value (Staphylococcus aureus)?
The value was 25 µg/mL.

What about the “MIC S. aureus” value (Staphylococcus aureus) of the same compound?
Its value is 6.25 µg/mL.

Which “Fold Regulation, IL1A” value (primary human MSC cells) does the source give for `CCCCCCCCOC(=O)CC[C@@H](C)[C@H]1CC[C@H]2[C@@H]3[C@H](OC(=O)CCN)C[C@@H]4C[C@H](OC(=O)CCN)CC[C@]4(C)[C@H]3C[C@H](OC(=O)CCN)[C@]12C` [CSA-44] here?
Its value is −6.0325 fold.

What about the “Fold Regulation, IL1B” value (primary human MSC cells) of the same compound?
Its value is −28.5329 fold.

And the “Fold Regulation, IRAK2” value (primary human MSC cells)?
The value was −31.8021 fold.

And the “Fold Regulation, NFKB1” value (primary human MSC cells)?
The value was −3.2891 fold.

And the “Fold Regulation, NFKB2” value (primary human MSC cells)?
The value was −2.2766 fold.

What about the “Fold Regulation, NFKBIA” value (primary human MSC cells) of the same compound?
Its value is −52.206 fold.

And the “Fold Regulation, TLR2” value (primary human MSC cells)?
Its value is −15.7179 fold.

What about the “Fold Regulation, TLR4” value (primary human MSC cells) of the same compound?
The value was −2.977 fold.

And the “Fold Regulation, TLR6” value (primary human MSC cells)?
The value was −2.392 fold.

And the “Fold Regulation, TLR8” value (primary human MSC cells)?
Its value is −8.2256 fold.

And the “Fold Regulation, TLR9” value (primary human MSC cells)?
The value was −1.8905 fold.

What about the “Fold Regulation, TNF” value (primary human MSC cells) of the same compound?
The value was −25.9588 fold.

And the “Fold Regulation, TNFRSF1A” value (primary human MSC cells)?
Its value is −2.2461 fold.
